# Like-named read-outs stand apart in the source and are kept apart here.
# Columns and labels:
# [1] = Static thermostability of stabilized polyvinyl chloride resin, GARDNER Scale comparator, 185° C.; settings: 185° C. and 210° C. trials, in words
# Protocol: The stabilizing power of the substances of the invention was studied by determining the static thermostability of the following resin: […]
# Polyvinyl chloride resin
# Calcium-12-hydroxy-stearate
# Stabilizer from 0.1 to 1
# SL 2016 represents a solution of zinc-2-ethyl-hexanoate in a mixture of aromatic hydrocarbons boiling between 158° and 184° C.
# The different ingredients were mixed and calendered in a mixer of which the cylinders were heated to 160° C.
# The rigid sheets so obtained were then heated in a oven to a temperature of 185° or 210° C., until incipient carbonization.
# A oven with a rotating drum, ventilated and equipped with a thermostat was used for this operation.
# In the trials described hereunder the behaviour of the sheets containing one of the stabilizers to be tested was compared to that of sheets of the same formula but containing 2-phenyl-indole as stabilizer.
# Comparison can be made by one of two methods, namely:
# (1) The coloration of the sheets, of which samples were removed from the oven at fixed intervals, was compared to a standard scale of coloration, known as the GARDNER Scale, and expressed in terms of the reference figures of the GARDNER Scale.
# Comparisons were made with a GARDNER Scale comparator which contains 18 filters of colored glass and which offers the possibility of observing simultaneously by transparency and in a limited field of view both the sheet and the reference filters.
# It may happen that the color of the sheets is far removed from that of the GARDNER Scale, in which case comparison is difficult, if not impossible.
# The following results were obtained at a temperature of 185° C., using the method described above: […]
# [2] = water; for Extractibility compared with 2-phenyl-indole: in words
# Protocol: This study was carried out in accordance with the requirements of the Food and Drug Administration (U.S.A.).
# The extractions were performed in semi-rigid bottles, prepared with the resin of which the composition is given below, and with the following solvents: water, ethanol-water 50/50, an aqueous solution of acetic acid (3%) and finally heptane.
# The ratio of the volume of solvent to the surface of plastic material exposed to extraction was about 1 to 100ml of solvent, taking into account the geometric characteristics of the bottles.
# Heating A thermostated oven for the non-inflammable
# solvents (water and acetic acid).
# A thermostated water-bath for the inflammable
# solvents (alcohol and heptane).
# The quantity of stabilizer extracted was determined by colorimetric assay using p-dimethylaminobenzaldehyde, in accordance with the method described in Analytical Chemistry 36,425-26 (1964).
# Results are expressed in μg of stabilizer extracted per litre of extraction solvent or, which is the same per 1000cm^2 of surface extracted.
# mice [3] = assay: Acute toxicity (LD50 / LDO), oral route, mice; assay type: in vivo
# Protocol: (§1) The toxicity of the stabilizers of the invention was studied first and the satisfactory results obtained were such as to justify continuation of the investigation.
# (§2) The acute toxicity (LD50) of the stabilizers listed below was measured by determining the dose of substance which provoked the death of 50% of the animals treated.
# (§3) A gummy suspension of the substance under study was administered by oral route to groups of at least ten mice and the following results were observed: […]
# [4] = known stabilizer, in words; cited from earlier work
# mice [5] = settings: known stabilizer, in words; cited from earlier work
# [6] = Acute toxicity (LD50 / LDO), oral route, mice; assay type: in vivo; settings: mouse, in vivo
# Protocol: as §1, §2, §3
compound,measurement,setting,value
"Oc1ccc2cc(-c3ccccc3)[nH]c2c1 [Stabilizer 2, 2-phenyl-6-hydroxy-indole]",Stabilizing power compared with 2-phenyl-indole,[1],superior to 2-phenyl-indole
same,"Extractibility, times less than 2-phenyl-indole",[2],at least 10 times
same,Extractibility compared with 2-phenyl-indole,[2],markedly superior to 2-phenyl-indole
"Oc1ccc2[nH]c(-c3ccccc3)cc2c1 [Stabilizer 19, 2-phenyl-5-hydroxy-indole]",Stabilizing power compared with 2-phenyl-indole,[1],superior to 2-phenyl-indole
"COc1cc(-c2cc3ccc(C)cc3[nH]2)ccc1O [Stabilizer 13, 2(3'-methoxy-4'-hydroxy-phenyl)6-methyl-indole]",Stabilizing power compared with 2-phenyl-indole,[1],superior to 2-phenyl-indole
"COc1ccc(-c2cc3cccc(C)c3[nH]2)cc1 [Stabilizer 5, 2-(4'-methoxy-phenyl)-7-methyl-indole]",Stabilizing power compared with 2-phenyl-indole,[1],superior to 2-phenyl-indole
"COc1ccc(-c2cc3cc(C)ccc3[nH]2)cc1 [Stabilizer 4, 2-(4'-methoxy-phenyl)-5-methyl-indole]",LDO (maximal dose which does not provoke any death),mice [3],> 500 mg/kg
same,Toxic symptoms,mice [3]; LDO table,none
same,Stabilizing power compared with 2-phenyl-indole,[1],superior to 2-phenyl-indole
c1ccc(-c2cc3ccccc3[nH]2)cc1 [2-phenyl-indole],Stabilizing power,[4],good stabilizing power
same,Toxicity,mice [5],low toxicity
"CCCCCCCCCCCCOc1ccc(-c2cc3cccc(C)c3[nH]2)cc1C [Stabilizer 14, 2-(3'-methyl-4'-dodecyloxy-phenyl)-7-methyl-indole]",Extractibility compared with 2-phenyl-indole,[2]; aqueous ethanol and heptane,markedly less extractible than 2-phenyl-indole
"COc1ccc(-c2cc3ccc(C)cc3[nH]2)cc1 [Stabilizer 6, 2-(4'-methoxy-phenyl)-6-methyl-indole]",LD50,[6],> 3000 mg/kg
same,Toxic symptoms,mice [3]; LD50 table,none
same,Stabilizing power compared with 2-phenyl-indole,[1],superior to 2-phenyl-indole
"CCCCCCCCCCCCOc1ccc(-c2cc3ccc(C)cc3[nH]2)cc1 [Stabilizer 12, 2-(4'-dodecyloxy-phenyl)-6-methyl-indole]",Stabilizing power compared with 2-phenyl-indole,[1],superior to 2-phenyl-indole
same,Extractibility compared with 2-phenyl-indole,[2]; aqueous ethanol and heptane,markedly less extractible than 2-phenyl-indole
"CCCCCCCCCCCCOc1ccc2[nH]c(-c3ccccc3)cc2c1 [Stabilizer 3, 2-phenyl-5-dodecyloxy-indole]",LD50,[6],> 5000 mg/kg
same,Toxic symptoms,mice [3]; LD50 table,none
same,Stabilizing power compared with 2-phenyl-indole,[1],superior to 2-phenyl-indole
same,Extractibility compared with 2-phenyl-indole,[2]; aqueous ethanol and heptane,markedly less extractible than 2-phenyl-indole
"COc1ccc2cc(-c3ccccc3)[nH]c2c1 [Stabilizer 1, 2-phenyl-6-methoxy-indole]",Stabilizing power compared with 2-phenyl-indole,[1],superior to 2-phenyl-indole
Oc1ccc2[nH]c(-c3ccccc3)cc2c1 [Stabilizer 19],LDO (maximal dose which does not provoke any death),mice [3],> 500 mg/kg
same,Toxic symptoms,mice [3]; LDO table,none
"COc1cc(-c2cc3cccc(C)c3[nH]2)ccc1O [Stabilizer 8, 2-(3'-methoxy-4'-hydroxy-phenyl)-7-methyl-indole]",Stabilizing power compared with 2-phenyl-indole,[1],superior to 2-phenyl-indole
"COc1cc(-c2cc3cc(C)ccc3[nH]2)ccc1O [Stabilizer 15, 2(3'-methoxy-4'-hydroxy-phenyl)-5-methyl-indole]",Stabilizing power compared with 2-phenyl-indole,[1],superior to 2-phenyl-indole
CCCCCCCCCCCCOc1ccc(-c2cc3ccc(C)cc3[nH]2)cc1 [Stabilizer 12],LD50,[6],> 3000 mg/kg
same,Toxic symptoms,mice [3]; LD50 table,none

# Reference: US4113736A, “2-Phenyl-indole derivatives” (priority 1975, dated 1978)
